From US20210254056A1, “IDENTIFICATION AND TARGETED MODULATION OF GENE SIGNALING NETWORKS” (CAMP4 THERAPEUTICS CORPORATION, priority 2017, published 2021)
Counter-ions that a name gives are not always drawn. Like-named read-outs stand apart in the source and are kept apart here.

Legend:
hepatocytes = experiment: RNA-seq of hepatocytes stimulated with the compounds of Table 68
[1] = tested on: primary human hepatocytes; experiment: RNA-seq of primary human hepatocytes treated with 39 small molecules (pilot and validation); conditions: for significant modulation of gene expression: RNA-seq, p-value≤0.05, primary human hepatocytes, the modulated genes are listed in the block; for Number (#) of genes having significantly changed expression: pilot RNA-seq study of Example 2, significance: FPKM≥0.5, log 2(fold change)≥1, q-value ≤0.05
[2] = hepatocytes stimulated with the compound, RNA-seq, significance: FPKM≥1, q-value≤0.05, log 2 fold change≥1.5

Compound | significant modulation of gene expression [1] | Number (#) of genes having significantly changed expression [1] | also measured
CC1(C)CCC(c2ccc(Cl)cc2)=C(CN2CCN(c3ccc(C(=O)NS(=O)(=O)c4ccc(N[C@H](CCN5CCOCC5)CSc5ccccc5)c(S(=O)(=O)C(F)(F)F)c4)cc3)CC2)C1 [ABT-263] |  |  | # of genes having significantly altered expression (hepatocytes; [2]): 1
CCCCC/C=C\C/C=C\C/C=C\C/C=C\CCCC(=O)NCCCl [ACEA] |  |  | # of genes having significantly altered expression (hepatocytes): 2
COCCOc1cnc2ccn([C@H](C)c3nnc4c(F)cc(-c5cnn(C)c5)cn34)c(=O)c2c1 [AMG337] |  |  | # of genes having significantly altered expression (hepatocytes; [2]): 3
CN(C)C/C=C/C(=O)Nc1cc2c(Nc3ccc(F)c(Cl)c3)ncnc2cc1O[C@H]1CCOC1 [Afatinib] |  |  | # of genes having significantly altered expression (hepatocytes; [2]): 2010
S=C(NCc1ccc2c(c1)OCO2)N1CCN(c2ncnc3c2oc2ccccc23)CC1 [Amuvatinib] |  |  | # of genes having significantly altered expression (hepatocytes; [2]): 2835
CNC(=O)c1ccccc1Sc1ccc2c(/C=C/c3ccccn3)n[nH]c2c1 [Axitinib] |  |  | # of genes having significantly altered expression (hepatocytes; [2]): 5
CC1(C)CC=C(c2cnc3ccccc3c2)c2cc(C(=O)Nc3ccc(C(=O)O)cc3)ccc21 [BMS 195614] |  |  | # of genes having significantly altered expression (hepatocytes): 46
C[C@@]1(C(=O)Nc2ccc(F)nc2)CCCN1c1nc(Nc2cc(C3CC3)n[nH]2)c2cccn2n1 [BMS-754807] |  |  | # of genes having significantly altered expression (hepatocytes): 302
C=C(c1ccc(C(=O)O)cc1)c1cc2c(cc1C)C(C)(C)CCC2(C)C [Bexarotene] |  |  | # of genes having significantly altered expression (hepatocytes; [2]): 267
COc1cc(Nc2c(C#N)cnc3cc(OCCCN4CCN(C)CC4)c(OC)cc23)c(Cl)cc1Cl [Bosutinib] |  |  | # of genes having significantly altered expression (hepatocytes; [2]): 2184
COCCOCOc1cc2ccc(-c3ccc(C(=O)O)cc3)cc2cc1C12CC3CC(CC(C3)C1)C2 [CD 2665] |  |  | # of genes having significantly altered expression (hepatocytes): 1102
Cc1ccccc1N=Nc1ccc(NC(=O)c2ccnn2C)c(C)c1 [CH223191] |  |  | # of genes having significantly altered expression (hepatocytes): 198
C=C1/C(=C\C=C2/CCC[C@]3(C)[C@@H]([C@H](C)CCCC(C)(C)O)CC[C@@H]23)C[C@@H](O)C[C@@H]1O [Calcitrol] |  |  | # of genes having significantly altered expression (hepatocytes; [2]): 1950
CCN(CC)CCCC(C)Nc1ccnc2cc(Cl)ccc12 (stereo not drawn) [Chloroquine phosphate] |  |  | # of genes having significantly altered expression (hepatocytes): 573
[Cl][Co][Cl] [Cobalt chloride] |  |  | # of genes having significantly altered expression (hepatocytes): 1275
C[C@@H](Oc1cc(-c2cnn(C3CCNCC3)c2)cnc1N)c1c(Cl)ccc(F)c1Cl [Crizotinib] |  |  | # of genes having significantly altered expression (hepatocytes; [2]): 3265
CCCCCCCCCCCC(=O)OC[C@H](COP(=O)([O-])OCC[N+](C)(C)C)OC(=O)CCCCCCCCCCC [DLPC] |  |  | # of genes having significantly altered expression (hepatocytes): 4
Cc1nc(Nc2ncc(C(=O)Nc3c(C)cccc3Cl)s2)cc(N2CCN(CCO)CC2)n1 [Dasatinib] |  |  | # of genes having significantly altered expression (hepatocytes; [2]): 2970
C=C1/C(=C\C=C2/CCC[C@]3(C)[C@@H]([C@H](C)/C=C/C=C/C(O)(CC)CC)CC[C@@H]23)C[C@@H](O)C[C@@H]1O [EB1089] |  |  | # of genes having significantly altered expression (hepatocytes; [2]): 68
CS[C@H]1SC[C@H]2C(=O)N(C)[C@@H](C(C)C)C(=O)OC[C@@H](NC(=O)c3cnc4ccccc4n3)C(=O)N[C@@H](C)C(=O)N(C)[C@@H]1C(=O)N(C)[C@@H](C(C)C)C(=O)OC[C@@H](NC(=O)c1cnc3ccccc3n1)C(=O)N[C@@H](C)C(=O)N2C [Echinomycin] |  |  | # of genes having significantly altered expression (hepatocytes): 7161
CCOC(=O)c1cncn1[C@H](C)c1ccccc1 [Etomidate] |  |  | # of genes having significantly altered expression (hepatocytes): 2

Compound | significant modulation of gene expression [1] | Number (#) of genes having significantly changed expression [1] | also measured
OCCn1cc(-c2ccc3c(c2)CC/C3=N\O)c(-c2ccncc2)n1 [GDC-0879] |  |  | # of genes having significantly altered expression (hepatocytes; [2]): 274
Cc1ccc(NC(=O)c2ccc(CN3CCN(C)CC3)cc2)cc1Nc1nccc(-c2cccnc2)n1 [MT-182, Imatinib] | significantly (p-value≤0.05) modulate | 31 | 
CC1(C)CC=C(c2ccccc2)c2cc(/C=C/c3ccc(C(=O)O)cc3)ccc21 [MT-232, Bms189453] | significantly (p-value≤0.05) modulate | 1 | 
CN1CCC(CNc2ccc3ncc(-c4cccc(OC(F)(F)F)c4)n3n2)CC1 [MT-254, SGI-1776] | significantly (p-value≤0.05) modulate | 64 | 
O=C(O)CC[C@H]1CC[C@@](c2cc(F)ccc2F)(S(=O)(=O)c2ccc(Cl)cc2)CC1 [MT-308, MK-0752] | significantly (p-value≤0.05) modulate |  | 
NNC(=O)c1ccncc1 [MT-312, Isoniazid] | significantly (p-value≤0.05) modulate | 14 | 
c1cc(-c2cnn3cc(-c4ccc(OCCN5CCCCC5)cc4)cnc23)ccn1 [MT-334, Dorsomorphin] |  | 15 | 
CN(CCOc1ccc(CC2SC(=O)NC2=O)cc1)c1ccccn1 (stereo not drawn) [MT-361, Rosiglitazone maleate] |  | 78 | 
CC(C)c1nc(CN(C)C(=O)N[C@H](C(=O)N[C@@H](Cc2ccccc2)C[C@H](O)[C@H](Cc2ccccc2)NC(=O)OCc2cncs2)C(C)C)cs1 [MT-372, Ritonavir] | significantly (p-value≤0.05) modulate | 183 | 
CCOc1ccn(-c2ccc(F)cc2)c(=O)c1C(=O)Nc1ccc(Oc2ccnc(N)c2Cl)c(F)c1 [MT-375, Bms777607] | significantly (p-value≤0.05) modulate | 19 | 
CC1=C(/C=C/C(C)=C/C=C/C(C)=C/C(=O)O)C(C)(C)CCC1 [MT-603, Tretinoin (ATRA)] | significantly (p-value≤0.05) modulate | 30 | 
CCCC(CCC)C(=O)O [MT-625, Valproate] |  | 4 | 
CNCc1ccc(C)c(NC(=O)c2ccc(Nc3nc(-c4ccccc4)c4ccccc4n3)cc2)c1 [MT-636, Bms833923] | significantly (p-value≤0.05) modulate | 66 | 
CC(C)Cc1ccc(C(C)C(=O)O)cc1 (stereo not drawn) [MT-662, Ibuprofen] | significantly (p-value≤0.05) modulate | 18 | 
Oc1nc(-c2ccc(C(F)(F)F)cc2)nc2c1CSCC2 [MT-713, Xav939] | significantly (p-value≤0.05) modulate | 8 | 
c1ccc(-c2[nH]ncc2-c2ccnc3ccccc23)nc1 [MT-740, LY 364947] | significantly (p-value≤0.05) modulate |  | 
CO[C@H]1C[C@@H]2CC[C@@H](C)[C@@](O)(O2)C(=O)C(=O)N2CCCC[C@H]2C(=O)O[C@H]([C@H](C)C[C@@H]2CC[C@@H](O)[C@H](OC)C2)CC(=O)[C@H](C)/C=C(\C)[C@@H](O)[C@@H](OC)C(=O)[C@H](C)C[C@H](C)/C=C/C=C/C=C/1C [MT-882, Rapamycin] |  | 67 | 
CC(=O)Nc1ccc(O)cc1 [MT-922, Acetaminophen (paracetamol)] |  | 3 | 
CCCCC(C)(C)[C@H](O)/C=C/[C@H]1[C@H](O)CC(=O)[C@@H]1C/C=C\CCCC(=O)O [MT-937, DmPGE2] | significantly (p-value≤0.05) modulate |  | 
COc1ccc(C[C@H](NC(C)=O)C(=O)N[C@H]2[C@@H](O)[C@H](n3cnc4c(N(C)C)ncnc43)O[C@@H]2CO)cc1 [MT-993, N-Acetylpurinomycin] | significantly (p-value≤0.05) modulate |  | 
